# Laboratory results taken from US20100197627A1, “PANCREATIC CANCER TREATMENT” (priority 2003, published 2010).
# Key:
# [1] = system: subcutaneously-implanted solid tumor xenografts; conditions: several subcutaneously-implanted solid tumor xenografts; cited from earlier work
# [2] = Analysis of toxicity (body weight, general appearance) of CS-682 in Example 2 mice; assay type: in vivo; conditions: for body weight: oral gavage
# Experimental: (§1) Seven days after SOI, mice were randomized into eight groups of 10 mice each, depending upon whether they were to be treated by surgical resection, chemotherapy or both. Mice in groups 1-4 were not treated surgically. […] Mice in groups 2-4 were treated with primary CS-682 at doses of 40, 50 Or 60 mg/kg each treatment day, respectively, according to the treatment schedules outlined below.
# (§2) Mice in groups 5-8 underwent surgical resection of their primary tumors 7 days after orthotopic implantation by a single blinded surgeon. Mice in group 5 received no additional chemotherapy; mice in groups 6-8 received adjuvant CS-682 at doses of 40, 50 or 60 mg/kg each treatment day, respectively.
# (§3) CS-682 was administered by oral gavage. Treatment with primary or adjuvant CS-682 was initiated 9 days after orthotopic tumor implantation (2 days after surgical resection when applicable) and was to be administered five times each treatment week for a total of 5 weeks or until death. […] In these groups, CS-682 was administered 9 times in weeks 1 and 2 after SOI and then 10 times in weeks 4 and 5, with a treatment hiatus during week 3.
# (§4) Twice/week, mice were weighed and underwent external in vivo imaging. This was performed in a fluorescent light box illuminated by fiberoptic lighting at 470 nm (Lightools Research, Encinitas Calif.). […] Emitted fluorescence was collected through a long-pass filter GG475 (Chroma Technology, Battleboro, Vt.) on a Hamamatsu C5810 3-chip cooled color charge-coupled device camera (Hamamatsu Photonics Systems, Bridgewater, N.J.). High-resolution images of 1024×724 pixels were captured directly on an IBM PC or continuously through video output on a high-resolution Sony VCR model SLV-R1000 (Sony Corp., Tokyo, Japan). Images were processed for contrast and brightness and analyzed with the use of Image Pro Plus 3.1 software (Media Cybernetics, Silver Spring, Md.). Real-time determination of tumor burden was performed by quantifying fluorescent surface area.
# The body weight and general appearance of each mouse were monitored and recorded twice weekly as evidence of systemic toxicity. […] Wasting of body fat, most pronounced in the interscapular area of the back, was a common late finding that occurred in conjunction with disseminated disease.
# [3] = system: MIA-PaCa-2-RFP pancreatic cancer; assay: Efficacy of oral CS-682 in surgical orthotopic implantation (SOI) mouse model of MIA-PaCa-2-RFP pancreatic cancer (Example 1); assay type: in vivo, nude mice (NCr-nu); conditions: for median survival: control 17 days; for mice with evident intra-abdominal fluid (ascites) on examination: 100% of controls within 16 days
# Experimental: The model employed pancreatic tumors derived from the MIA-PaCa-2 pancreatic cancer cell line.
# The MIA-PaCa-2 pancreatic cancer cell line was obtained from the American Type Culture Collection (Rockville, Md.), maintained in DMEM media supplemented with 10% heat-inactivated fetal bovine serum and 1% penicillin and streptomycin (Gibco-BRL, Life Technologies, Inc., Grand Island, N.Y.) and cultured at 37° C. in a 5% CO2 incubator.
# The pDsRed-2 vector (Clontech Laboratories Inc., Palo Alto, Calif.) was used to engineer MIA-PaCa-2 clones stably expressing RFP. This vector expresses RFP and the neomycin resistance gene on the same bicistronic message. pDsRed-2 was produced in PT67 packaging cells. RFP transduction was initiated by incubating 20% confluent MIA-PaCa-2 cells with retroviral supernatants of the packaging cells and DMEM for 24 hours. Fresh medium was replenished at this time and cells were allowed to grow in the absence of retrovirus for 12 hours. This procedure was repeated until high levels of RFP expression, as determined using fluorescence microscopy, were achieved. Cells were then harvested by trypsin/EDTA and subcultured into selective medium that contained 200 μg/ml G418. The level of G418 was increased to 2000 μg/ml stepwise. Clones expressing high levels of RFP were isolated with cloning cylinders as needed, and were amplified and transferred using conventional culture methods. High RFP-expression clones were isolated in the absence of G418 for 10 passages to select for stable expression of RFP in vivo.
# Male nude mice (NCr-nu) between 4-6 weeks of age were maintained in a barrier facility on HEPA-filtered racks. The animals were fed with autoclaved laboratory rodent diet (Teckland LM-485; Western Research Products, Orange, Calif.). Animal experiments were performed in accordance with the Guidelines for the Care and Use of Laboratory Animals (NIH Publication Number 85-23) under assurance number A3873-01.
# Red-fluorescent human pancreatic cancer xenografts were established in nude mice by surgical orthotopic implantation (SOI). Briefly, MIA-PaCa-2-RFP tumors in the exponential growth phase, grown subcutaneously in nude mice, were resected aseptically. Necrotic tissues were cut away, and the remaining healthy tumor tissues were cut with scissors and minced into 1 mm^3 pieces in RPMI 1640 medium. Mice were then anesthetized and their abdomens were sterilized with alcohol. An incision was then created through the left upper abdominal pararectal line and peritoneum. The pancreas was carefully exposed and two tumor pieces were transplanted onto the middle of the gland using a single 8-0 surgical suture (Davis-Geck, Inc., Manati, Puerto-Rico). The pancreas was then returned into the peritoneal cavity, and the abdominal wall and the skin were closed in two layers using 6-0 surgical sutures. All procedures were performed with a 7× microscope (Olympus) or standard surgical loupes.
# (§5) CS-682 (1-(2-C-cyano-2-deoxy-β-D-arabino-pentofuranosyl)-N^4-palmitoylcytosine, Sankyo Pharmaceuticals, Tokyo) was administered by oral gavage. Prior to the first treatment, mice were randomized into eight groups of 10 mice each for treatment purposes.
# (§6) Groups 2, 3 and 4 received 40, 60 and 80 mg/kg/dose CS-682, respectively, each scheduled treatment day.
# (§7) […] received 20, 30, 40 and 50 mg/kg/dose CS-682 twice each treatment day, respectively.
# (§8) Dosing was initiated five days after surgical orthotopic implantation, and was performed five days each week until death.
# External, in vivo whole body imaging, for at least once a week, mice were weighed and underwent external, in vivo imaging. This was performed in a fluorescent light box illuminated by fiberoptic lighting at 470 nm (Lightools Research, Encinitas, Calif.). Emitted fluorescence was collected through a long-pass filter GG475 (Chroma Technology, Battleboro, Vt.) on a Hamamatsu C5810 3-chip cooled color CCD camera (Hamamatsu Photonics Systems, Bridgewater, N.J.). […]
# [4] = system: MIA-PaCa-2-RFP pancreatic cancer; assay: Primary and adjuvant (after surgical resection) CS-682 in orthotopic MIA-PaCa-2-RFP metastatic pancreatic cancer mouse model (Example 2); assay type: in vivo, nude mice
# Text: The efficacy of oral CS-682 in the adjuvant treatment of metastatic pancreatic cancer was studied. […] The study discussed below used a highly aggressive clone of the human pancreatic cancer cell line MIA-PaCa-2 pancreatic cancer cell line that was engineered, as discussed above, to selectively express high levels of the Discosoma red fluorescent protein. This brightly fluorescent model facilitated the noninvasive quantification of tumor burden throughout the course of treatment.
# The MIA-PaCa-2 pancreatic cancer cell line and the animals used in the study were prepared as discussed in Example 1, with the following exceptions. Following orthotopic implantation of MIA-PaCa-2-RFP tumors, each mouse in a treatment group requiring surgical resection of the primary pancreatic tumor was anesthetized and prepared for surgery. The peritoneum was subsequently reopened through the original incision and an examination of adjacent structures was performed to ensure that macroscopic disease was localized to the pancreas. All grossly visible tumor was removed using sharp dissection. Hemostasis was achieved using 6-0 sutures. The abdomen was then closed in two layers.
# as §1, §2, §3, §4
# Mice were sacrificed and explored when they appeared premorbid. After euthanasia, each mouse underwent laparotomy and sternotomy. Excitation of RFP in the light box, described above, facilitated identification of primary and metastatic disease by fluorescence visualization. After performing full-body open images, the solid organs were removed, and their surfaces were thoroughly examined for any evidence of metastases. Fluorescence microscopy was accomplished using a Leica fluorescence stereo microscope model LZ12 (Leica Microsystems, Inc., Bannockburn, Ill.) equipped with a mercury 50-W lamp power supply. Selective excitation of RFP was produced through a […]. Emitted fluorescence was collected by the Hamamatsu camera system described above. […]
# [5] = system: tumor cell lines of the stomach, lung, colon and breast; conditions: oral CS-682; cited from earlier work
# [6] = Body weight loss and toxicity of oral CS-682 in tumor-bearing nude mice (Example 1); assay type: in vivo; conditions: doses higher than 60 mg/kg per day, oral gavage
# Experimental: as §5, §6, §7, §8
# External, in vivo whole body imaging, for at least once a week, mice were weighed and underwent external, in vivo imaging. This was performed in a fluorescent light box illuminated by fiberoptic lighting at 470 nm (Lightools Research, Encinitas, Calif.). Emitted fluorescence was collected through a long-pass filter GG475 (Chroma Technology, Battleboro, Vt.) on a Hamamatsu C5810 3-chip cooled color CCD camera (Hamamatsu Photonics Systems, Bridgewater, N.J.). […] Images were processed for contrast and brightness and analyzed with the use of Image Pro Plus 3.1 software (Media Cybernetics, Silver Spring, Md.). Real-time determination of tumor burden was performed by quantifying fluorescent surface area, as described previously (Bouvet, M., et al., Cancer Res. (2002) 62:1534-1540).
smiles,measurement,setting,value
"CCCCCCCCCCCCCCCC(=O)Nc1ccn([C@@H]2O[C@H](CO)[C@@H](O)[C@@H]2C#N)c(=O)n1 [CS-682, 1-(2-C-cyano-2-deoxy-β-D-arabino-pentofuranosyl)-N^4-palmitoylcytosine]",antitumor activity,[1],potent antitumor activity
same,body weight,[2]; 40 mg/kg each treatment day,not associated with a significant loss in body weight
same,body weight,"[2]; 50 mg/kg each treatment day, chronic",did not lead to a significant loss of body weight
same,loss in body weight,"[2]; 60 mg/kg, by day 20, after first nine doses",15%
same,animals lost to toxicity,"[2]; 60 mg/kg, modified schedule with hiatus in week 3, day 41",1 animal
same,median survival,"[3]; 20 mg/kg twice daily oral, p=0.003",27 days
same,tumor growth (mean area of external RFP autofluorescence),"[3]; 20 mg/kg twice daily, 40 mg/kg daily and 60 mg/kg daily, p<0.05 at each time point",inhibit pancreatic cancer growth
same,median survival,[3]; 30 mg/kg twice daily oral,19 days
same,time until widespread tumor metastasis visible by whole-body RFP imaging,"[3]; 40 mg/kg and 60 mg/kg daily, control within first two weeks",not visible until the third and fourth week post-implantation
same,"development of metastases at autopsy (diaphragm, portal nodes, liver, intestinal nodes, kidney)",[3]; 40 mg/kg daily,significantly inhibited the development of metastases
same,median survival,"[3]; 40 mg/kg daily oral, p=0.0008",35 days
same,mice with locally confined disease,"[3]; 40 mg/kg daily, day 16 after implantation",90%
same,mice with evident intra-abdominal fluid (ascites) on examination,[3]; 40 mg/kg daily,50%
same,primary tumor average weight at autopsy,"[3]; 40 mg/kg daily, control 5.163 g, p=0.16",3.935 g
same,median survival,[3]; 40 mg/kg twice daily oral,19 days
same,median survival,[3]; 50 mg/kg twice daily oral,18 days
same,effect on primary tumor growth (weight at autopsy),"[3]; 60 mg/kg daily (p=0.0004), 20 mg/kg twice daily (p=0.003)",significant effect on primary tumor growth
same,median survival,"[3]; 60 mg/kg daily oral, p=0.002",36 days
same,mice with evident intra-abdominal fluid (ascites) on examination,[3]; 60 mg/kg daily,10%
same,median survival,[3]; 80 mg/kg daily oral,19 days
same,mice that lived at least 60 days,[4]; adjuvant 50 mg/kg after surgical resection,30%
same,animals with at most local disease confined to one abdominal quadrant,"[4]; adjuvant 50 mg/kg after surgical resection, day 23",70%
same,median survival,"[4]; adjuvant 50 mg/kg after surgical resection, untreated 26 days, resection alone 28 days",48 days
same,time after completion of chemotherapy until distant metastasis seen,"[4]; adjuvant 50 mg/kg, the 30% of mice with long-term survival",10 days
same,animals showing signs of fluid retention (ascites) at the time of their death,[4]; adjuvant CS-682 after surgical resection,20%
same,survival versus treatment controls,"[4]; adjuvant CS-682 after surgical resection, all doses tested (40, 50, 60 mg/kg)",significant increase in survival over treatment controls
same,survival versus untreated,"[4]; primary CS-682 without resection, 40, 50 and 60 mg/kg",significantly enhanced the survival
same,cytotoxic activity compared with parent compound CNDAC,[5],more potent cytotoxic activity than its parent compound
same,toxicity-related death,[6],toxicity-related death was observed in a significant number of mice
